These results are taken from US12252524B2, “GIP/GLP1 co-agonist compounds” (Eli Lilly and Company, priority 2018, dated 2025).

A short description of data set [1]: Proteolytic stability assay in 1% rat small intestinal fluid (rSIF). The following applies: for percentage of peptide not cleaved using rSIF: 0 min, 1% rSIF, 37° C.; for remaining at 0.05 h, 0.4 mg/mL / remaining at 0.25 h, 0.4 mg/mL / remaining at 1 h, 0.4 mg/mL: rat, real gastrointestinal fluid or homogenate, pH 8. As to the method:
The stability of peptides are compared in 1% rat small intestinal fluid (rSIF). The amount of intact peptide is measured for a sample peptide at 0, 3, 15, and 30 minutes to assess proteolytic stability. The amount of intact peptide for a sample peptide is measured in 90% pig small intestinal fluid (pSIF) at 0, 30, 45, and 60 minutes to assess the proteolytic stability.
Peptides are prepared at 0.4 mg/mL in 50 mM Tris pH8.0. […] The mixture is incubated at 37° C. at 150 rpm. Thirty μL of each sample are removed and placed into a new tube before the rSIF is added and at […]. At each time point, the reaction was quenched by 1% TFA in 50% ACN at 1:1. The samples are diluted 100 times using dilution buffer (1:1 of 1% TFA in 50% ACN: 50 mM Tris pH8) and ready for analysis using mass spectrometry (MS).
The data analysis is performed using MassLynx.

For data set [2] the following is noted: single subcutaneous 50 nMol/kg, male cynomolgus monkeys.
Method: (§1) Pharmacokinetics in male Cynomolgus Monkeys The pharmacokinetics of select Examples are evaluated following a single subcutaneous administration of 50 nMol/kg to male cynomolgus monkeys. […] Peptide plasma (K3 EDTA) concentrations are determined using a qualified LC/MS method that measured the intact mass of the compound. […] Instruments are combined for LC/MS detection.
Data set [3] is described as follows: in vivo. The following applies: male, CD-1, mouse, plasma, sc, 200 nmol/kg.
Method: The pharmacokinetics of select Examples are evaluated following a single subcutaneous administration of 200 nMol/kg to male CD-1 mice. […] Plasma (K3 EDTA) concentrations are determined using a qualified LC/MS method that measures the intact mass of the Examples. […] Instruments are combined for LC/MS detection.
A short description of data set [4]: in vivo. The following applies: male, cynomolgus monkey, plasma, sc, 50 nmol/kg.
Method: as §1
Data set [5] can be described thus: Peptide stability in 50% v/v pig small intestinal fluid with and without protease inhibitor. The class given is in vitro ADME. The note with it: for remaining at 0.25 h / remaining at 0.5 h / remaining at 1 h: read-out: % peptide intact. As to the method: A peptide is incubated at 37° C. in 1% (v/v) rat small intestinal fluid or 50% (v/v) pig small intestinal fluid with and without a peptidase inhibitor. At different time points, samples are taken out, followed by quenching with 1% TFA in 50% ACN/water to stop the enzyme activity. The intact peptide at different time points is analyzed by high-performance liquid chromatography (HPLC) equipped with an ultraviolet (UV) detector or LC-MS/MS and normalized to the amount of peptide before mixing with the enzyme solution.

Data set [6] deals with CD8+ T cell depleted peripheral blood mononuclear cells.
Method: The purpose of this study is to determine the relative potential for clinical immunogenicity of a compound.
CD8+ T cell depleted peripheral blood mononuclear cells are prepared and labeled with Carboxyfluorescein Diacetate Succinimidyl Ester (CFSE, Invitrogen) from a cohort of 10 healthy donors. […] Cultures are incubated for 7 days at 37° C. with 5% CO2. On day 7, samples are analyzed by flow cytometry using High Throughput Sampler (HTS). Data is analyzed using FlowJo® Software (FlowJo, LLC, TreeStar).

Read-outs that look alike come from different tables or passages of the source. Numbered stars: 1 amine (or outer) side, 2 acyl side, 3 side chain; on linkers, the order of the positions; unused ones are H or OH. Square brackets hold non-standard residues; d marks the D form. Side chains are listed from the residue outwards. Peptide text beside a SMILES is read from it. * marks the point of attachment. C20 diacid = O=C(O)CCCCCCCCCCCCCCCCCCC(=O)*; C18 diacid = O=C(O)CCCCCCCCCCCCCCCCC(=O)*; αMePhe(2-F) = C[C@](N)(Cc1ccccc1F)C(=O)O; γGlu = O=C(O)[C@H](CCC(=O)[*:2])N[*:1]; αMeL = CC(C)C[C@](C)(N)C(=O)O; Orn = NCCC[C@H](N)C(=O)O; AEEA = NCCOCCOCC(=O)O; Aib = CC(C)(N)C(=O)O

For the molecule `CC[C@H](C)[C@H](NC(=O)[C@H](CC(C)C)NC(=O)[C@H](Cc1ccc(O)cc1)NC(=O)[C@@H](CCC(=O)O)NC(=O)[C@@H](NC(=O)[C@H](Cc1ccccc1)NC(=O)[C@H](CCC(=O)O)NC(=O)C(C)(C)NC(=O)[C@H](CCC(N)=O)NC(=O)[C@H](C)NC(=O)[C@H](CCCCNC(=O)COCCOCCNC(=O)COCCOCCNC(=O)CC[C@H](NC(=O)CCCCCCCCCCCCCCCCCCC(=O)O)C(=O)O)NC(=O)[C@H](CCC(=O)O)NC(=O)[C@H](CC(=O)O)NC(=O)[C@H](CC(C)C)NC(=O)[C@](C)(CC(C)C)NC(=O)[C@@H](NC(=O)[C@H](CO)NC(=O)[C@H](Cc1ccc(O)cc1)NC(=O)[C@H](CC(=O)O)NC(=O)[C@H](CO)NC(=O)[C@@H](NC(=O)[C@](C)(Cc1ccccc1F)NC(=O)[C@@H](NC(=O)CNC(=O)[C@H](CCC(=O)O)NC(=O)C(C)(C)NC(=O)[C@@H](N)Cc1ccc(O)cc1)[C@@H](C)O)[C@@H](C)O)[C@@H](C)CC)[C@@H](C)CC)C(=O)N[C@@H](CCC(=O)O)C(=O)NCC(=O)NCC(=O)N1CCC[C@H]1C(=O)N[C@@H](CO)C(=O)N[C@@H](CO)C(=O)NCC(=O)N[C@@H](C)C(=O)N1CCC[C@H]1C(=O)N1CCC[C@H]1C(=O)N1CCC[C@H]1C(=O)N[C@@H](CO)C(N)=O` [Example 1] (H-Y[Aib]EGT[αMePhe(2-F)]TSDYSI[αMeL]LDEK([AEEA-AEEA-γGlu-C20 diacid])AQ[Aib]EFI[dE]YLIEGGPSSGAPPPS-NH2), in data set [1], the “percentage of peptide not cleaved using rSIF” value came out at 100%; the remaining at 0.05 h, 0.4 mg/mL came to 82.4%; the remaining at 0.25 h, 0.4 mg/mL came out at 41.4%; the remaining at 1 h, 0.4 mg/mL is 1.6%. In data set [2], this molecule showed an AUCINF_D_obs of 1458 hr*kg*nmol/L/nmol and a Cmax/D of 6.5 kg*nmol/L/nmol. Moreover, in the data set “in vivo [3]”, the apparent clearance (CL/F) is 7.37 mL/h/kg, the Tmax worked out at 12 h and the half-life was 17.5 h. Moreover, in “in vivo [4]”, the CL/F was 0.69 mL/h/kg, the Tmax came to 18 h and the half-life is 125 h.
As to `CC[C@H](C)[C@H](NC(=O)[C@H](CC(C)C)NC(=O)[C@H](Cc1ccc(O)cc1)NC(=O)[C@@H](CCC(=O)O)NC(=O)[C@@H](NC(=O)[C@H](Cc1ccccc1)NC(=O)[C@H](CCC(=O)O)NC(=O)C(C)(C)NC(=O)[C@H](CCC(N)=O)NC(=O)[C@H](C)NC(=O)[C@H](CCCCNC(=O)COCCOCCNC(=O)COCCOCCNC(=O)CC[C@H](NC(=O)CCCCCCCCCCCCCCCCC(=O)O)C(=O)O)NC(=O)[C@H](CCCN)NC(=O)[C@H](CC(=O)O)NC(=O)[C@H](CC(C)C)NC(=O)[C@](C)(CC(C)C)NC(=O)[C@@H](NC(=O)[C@H](CO)NC(=O)[C@H](Cc1ccc(O)cc1)NC(=O)[C@H](CC(=O)O)NC(=O)[C@H](CO)NC(=O)[C@@H](NC(=O)[C@](C)(Cc1ccccc1F)NC(=O)[C@@H](NC(=O)CNC(=O)[C@H](CCC(=O)O)NC(=O)C(C)(C)NC(=O)[C@@H](N)Cc1ccc(O)cc1)[C@@H](C)O)[C@@H](C)O)[C@@H](C)CC)[C@@H](C)CC)C(=O)N[C@@H](CCC(=O)O)C(=O)NCC(=O)NCC(=O)N1CCC[C@H]1C(=O)N[C@@H](CO)C(=O)N[C@@H](CO)C(=O)NCC(=O)N[C@@H](C)C(=O)N1CCC[C@H]1C(=O)N1CCC[C@H]1C(=O)N1CCC[C@H]1C(=O)N[C@@H](CO)C(N)=O` [Example 2] (H-Y[Aib]EGT[αMePhe(2-F)]TSDYSI[αMeL]LD[Orn]K([AEEA-AEEA-γGlu-C18 diacid])AQ[Aib]EFI[dE]YLIEGGPSSGAPPPS-NH2; N-terminus assumed), in data set [1], the “percentage of peptide not cleaved using rSIF” value was 100%. For the same molecule, the remaining at 0.05 h, 0.4 mg/mL in data set [1] is 75.5%. Further, the remaining at 0.25 h, 0.4 mg/mL in data set [1] is 18.3%. In data set [1], the remaining at 1 h, 0.4 mg/mL is 0.3%. Further, the “% peptide intact” value is listed as 100.00% in data set [5] (no PI, control, 0 min); 100.00% in data set [5] (rSBTCI (0.5 mg/mL), 0 min); 131.71% in data set [5] (rSBTCI (0.5 mg/mL), 15 min); 126.53% in data set [5] (rSBTCI (0.5 mg/mL), 30 min); 123.70% in data set [5] (rSBTCI (0.5 mg/mL), 60 min); 100.00% in data set [5] (rSBTI (5 mg/mL), 0 min). In addition, the remaining at 0.25 h in data set [5] (pH 8, no PI, control, 15 min) was 2.42%; in data set [5] (pH 8, with rSBTI (5 mg/mL), protease inhibitor, rSBTI (5 mg/mL), 15 min) it was 103%. Also, the remaining at 0.5 h in data set [5] (pH 8, no PI, control, 30 min) was found to be 1.9%; in data set [5] (pH 8, with rSBTI (5 mg/mL), protease inhibitor, rSBTI (5 mg/mL), 30 min), 113%. The remaining at 1 h in data set [5] (pH 8, no PI, control, 60 min) was 3.09%; in data set [5] (pH 8, with rSBTI (5 mg/mL), protease inhibitor, rSBTI (5 mg/mL), 60 min) it was 87.3%. The molecule also came in with an AUCINF_D_obs in data set [2] of 2059 hr*kg*nmol/L/nmol. In data set [2], this molecule displayed a Cmax/D of 11.7 kg*nmol/L/nmol. For the same molecule, the values for the CL/F in “in vivo [3]” and in the data set “in vivo [4]” were 12.9 mL/h/kg and 0.49 mL/h/kg, respectively. Also, the Tmax in “in vivo [3]” came out at 6 h; in the data set “in vivo [4]”, 24 h. Besides, the half-life is 7.55 h in the data set “in vivo [3]” and 102 h in the data set “in vivo [4]”.
Turning to `CC[C@H](C)[C@H](NC(=O)[C@H](CC(C)C)NC(=O)[C@H](Cc1ccc(O)cc1)NC(=O)[C@@H](CCC(=O)O)NC(=O)[C@@H](NC(=O)[C@H](Cc1ccccc1)NC(=O)[C@H](CCC(=O)O)NC(=O)C(C)(C)NC(=O)[C@H](CCC(N)=O)NC(=O)[C@H](C)NC(=O)[C@H](CCCCNC(=O)COCCOCCNC(=O)COCCOCCNC(=O)CC[C@H](NC(=O)CCCCCCCCCCCCCCCCCCC(=O)O)C(=O)O)NC(=O)[C@H](CCCN)NC(=O)[C@H](CC(=O)O)NC(=O)[C@H](CC(C)C)NC(=O)[C@](C)(CC(C)C)NC(=O)[C@@H](NC(=O)[C@H](CO)NC(=O)[C@H](Cc1ccc(O)cc1)NC(=O)[C@H](CC(=O)O)NC(=O)[C@H](CO)NC(=O)[C@@H](NC(=O)[C@](C)(Cc1ccccc1F)NC(=O)[C@@H](NC(=O)CNC(=O)[C@H](CCC(=O)O)NC(=O)C(C)(C)NC(=O)[C@@H](N)Cc1ccc(O)cc1)[C@@H](C)O)[C@@H](C)O)[C@@H](C)CC)[C@@H](C)CC)C(=O)N[C@@H](CCC(=O)O)C(=O)NCC(=O)NCC(=O)N1CCC[C@H]1C(=O)N[C@@H](CO)C(=O)N[C@@H](CO)C(=O)NCC(=O)N[C@@H](C)C(=O)N1CCC[C@H]1C(=O)N1CCC[C@H]1C(=O)N1CCC[C@H]1C(=O)N[C@@H](CO)C(N)=O` [Example 3], in data set [1], the “percentage of peptide not cleaved using rSIF” value stood at 100%; the remaining at 0.05 h, 0.4 mg/mL was determined as 68.8%; the remaining at 0.25 h, 0.4 mg/mL is 25.8%; the remaining at 1 h, 0.4 mg/mL amounted to 0.3%. In data set [2], the AUCINF_D_obs worked out at 3420 hr*kg*nmol/L/nmol and the Cmax/D was found to be 11.38 kg*nmol/L/nmol. In “in vivo [3]”, the apparent clearance CL/F was 6.31 mL/h/kg, the Tmax was found to be 6 h and the half-life is 15 h. Besides, in the data set “in vivo [4]”, the apparent clearance (CL/F) was 0.29 mL/h/kg, the time to peak (Tmax) amounted to 30 h and the half-life was 181 h.
Regarding `CC[C@H](C)[C@H](NC(=O)[C@H](CC(C)C)NC(=O)[C@H](Cc1ccc(O)cc1)NC(=O)[C@H](CCC(=O)O)NC(=O)[C@@H](NC(=O)[C@H](Cc1ccccc1)NC(=O)[C@H](C)NC(=O)C(C)(C)NC(=O)[C@H](CCC(N)=O)NC(=O)[C@H](C)NC(=O)[C@H](CCCCNC(=O)COCCOCCNC(=O)COCCOCCNC(=O)CC[C@H](NC(=O)CCCCCCCCCCCCCCCCCCC(=O)O)C(=O)O)NC(=O)[C@H](CCCCN)NC(=O)[C@H](CC(=O)O)NC(=O)[C@H](CC(C)C)NC(=O)[C@H](CC(C)C)NC(=O)[C@@H](NC(=O)[C@H](CO)NC(=O)[C@H](Cc1ccc(O)cc1)NC(=O)[C@H](CC(=O)O)NC(=O)[C@H](CO)NC(=O)[C@@H](NC(=O)[C@H](Cc1ccccc1)NC(=O)[C@@H](NC(=O)CNC(=O)[C@H](CCC(=O)O)NC(=O)C(C)(C)NC(=O)[C@@H](N)Cc1ccc(O)cc1)[C@@H](C)O)[C@@H](C)O)[C@@H](C)CC)[C@@H](C)CC)C(=O)N[C@@H](C)C(=O)NCC(=O)NCC(=O)N1CCC[C@H]1C(=O)N[C@@H](CO)C(=O)N[C@@H](CO)C(=O)NCC(=O)N[C@@H](C)C(=O)N1CCC[C@H]1C(=O)N1CCC[C@H]1C(=O)N1CCC[C@H]1C(=O)N[C@@H](CO)C(N)=O` [Example 288] (H-Y[Aib]EGTFTSDYSILLDKK([AEEA-AEEA-γGlu-C20 diacid])AQ[Aib]AFIEYLIAGGPSSGAPPPS-NH2; N-terminus assumed), in data set [6], the “frequency of positive CD+ T cell response (CDI>2.5)” value is given as “low”.
